We go through 35 compounds from patent publication US20250223281A1, “ANTIDIABETIC COMPOUNDS AND COMPOSITIONS” (REZUBIO PHARMACEUTICALS CO., LTD, priority 2022, published 2025).

The target of this assay is T1, GPR40 (Homo sapiens, UniProt O14842).
T1 construct: expressed in transfected cells; host or cells: HEK293 cells stably expressing GPR40 (Hygromycin selection)
The assay is described as follows: IP1 accumulation assay in HEK293 cells stably expressing GPR40. Type of assay: cell-based. The method in brief:
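HEK293 cells stably expressing human GPR40 were incubated with compounds (10-point, 3-fold dilution series) for 2 h at 37 °C, then IP1 was detected by HTRF (665/615 nm ratio). Effect was normalised to DMSO blank and AMG-1638 as 100%, and EC50 was derived from dose curves.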

[1] abbreviates: IP1 accumulation, HEK293 cells stably expressing GPR40, 2 hours at 37° C., % effect relative to AMG-1638, table of Biological Example 1.
Where [2] appears, read: Tables A-1a to A-7b (structure-property relationship), obtained by methods of Biological Example 1.
Where [3] appears, read: Table A-8 (additional examples), obtained by methods of Biological Example 1.

T1 sequence (O14842 whole entry): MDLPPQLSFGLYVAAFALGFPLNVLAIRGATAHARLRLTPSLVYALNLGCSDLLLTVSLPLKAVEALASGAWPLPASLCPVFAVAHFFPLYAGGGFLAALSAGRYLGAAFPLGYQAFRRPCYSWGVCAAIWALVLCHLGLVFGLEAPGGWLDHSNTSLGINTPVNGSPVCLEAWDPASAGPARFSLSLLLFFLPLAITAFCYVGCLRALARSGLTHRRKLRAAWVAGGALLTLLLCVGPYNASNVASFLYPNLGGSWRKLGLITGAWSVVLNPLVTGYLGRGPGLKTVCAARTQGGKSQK

As a reminder, the EC50 is the concentration that produces a half-maximal response. Take `COc1ccc(F)c(-c2ccc(COc3cccc([C@@H](CC(=O)O)C4CC4)c3)cc2CC(C)(C)Cc2cn(CCCCCCCCCCCC(=O)NCCN(CCC(=O)NCCN)CCC(=O)NCCN)nn2)c1` [Example 92]: the EC50 turned out to be 212 nM under setting [1] and 212 nM under setting [2].

For the compound `COc1ccc(F)c(-c2ccc(COc3cccc([C@@H](CC(=O)O)C4CC4)c3)cc2OC(C)(C)Cn2cc(CCCCCCCCCCCCCC(=O)NCCN(CCC(=O)NCCN)CCC(=O)NCCN)nn2)c1` [Example 88], under setting [1], the EC50 came out at 22.8 nM. Compound `C[C@H](C(=O)O)[C@H](c1ccc2c(c1)O[C@@H](C1CCN(Cc3cc(-n4cc(COCCOCCOCCOCCOCC(=O)NCC[N+](C)(CCC(=O)NCCN)CCC(=O)NCCN)nn4)ccc3OC(F)(F)F)CC1)CC2)C1CC1` [Example 176] registered a half-maximal effective concentration (EC50) under setting [1] above 10000 nM and an EC50 under setting [3] above 10000 nM. Turning to `C[C@H](C(=O)O)[C@H](c1ccc2c(c1)O[C@@H](C1CCN(Cc3cc(-c4cn(CCCCCCCCCCCCCC(=O)NCCN(CCC(=O)NCCN)CCC(=O)NCCN)nn4)ccc3OC(F)(F)F)CC1)CC2)C1CC1` [Example 5], the concentration giving a half-maximal response (EC50) reads like this: under setting [1], 15.2 nM; under setting [2], 15.2 nM. For the compound `COc1ccc(C(=O)N(CC(C)(C)CCn2cc(CCCCCCCCC(=O)NCCCN(CC(=O)O)CC(=O)O)nn2)c2cccc(C)n2)c(N2CCC(COc3cc([C@@H](CC(=O)O)C4CC4)ccn3)CC2)c1` [Example 215], the EC50 by setting is: under setting [1], 1360 nM; under setting [2], 1360 nM.

In the case of `C[C@H](C(=O)O)[C@H](c1ccc2c(c1)O[C@@H](C1CCN(Cc3cc(-n4cc(COCCOCCOCCOCC(=O)NCC[N+](C)(CCC(=O)NCCN)CCC(=O)NCCN)nn4)ccc3OC(F)(F)F)CC1)CC2)C1CC1` [Example 175], the EC50 is, setting by setting: under setting [1], above 10000 nM; under setting [3], above 10000 nM.

Compound `COc1ccc(F)c(-c2ccc(COc3cccc([C@@H](CC(=O)O)C4CC4)c3)cc2CC(C)(C)Cc2cn(CCCCCCCCCCCCCCCCCC(=O)NCC[N+](C)(C)CCCS(=O)(=O)O)nn2)c1` [Example 91] had an EC50 under setting [1] of 1.52 nM. Still for that read-out and setting: as for `COc1ccc(C(=O)N(CC(C)(C)CCCCCCn2cc(CCCCCCCCCCCCCCCCCC(=O)NCC[N+](C)(CCC(=O)NCCN)CCC(=O)NCCN)nn2)c2cccc(C)n2)c(N2CCC(COc3cc([C@@H](CC(=O)O)C4CC4)ccn3)CC2)c1` [Example 42], the figure is 0.29 nM; as for `COc1ccc(F)c(-c2ccc(COc3cccc([C@@H](CC(=O)O)C4CC4)c3)cc2OC(C)(C)COCc2cn(CCCCCCCCCCCCCCCCCC(=O)NCC[N+](C)(CCC(=O)NCCN)CCC(=O)NCCN)nn2)c1` [Example 28], 4.77 nM. Still for that read-out and setting: with `COc1ccc(F)c(-c2ccc(COc3cccc([C@@H](CC(=O)O)C4CC4)c3)cc2CC(C)(C)Cn2cc(CCCCCCCCCCCCCCCCCC(=O)NCC[N+](C)(C)C)nn2)c1` [Example 38] the figure was 5.42 nM.

As for `COc1ccc(C(=O)N(CC(C)(C)CCn2cc(CCCCCCCCCC(=O)NCCCN(CC(=O)O)CC(=O)O)nn2)c2cccc(C)n2)c(N2CCC(COc3cc([C@@H](CC(=O)O)C4CC4)ccn3)CC2)c1` [Example 124], the EC50 reads like this: under setting [1], 226 nM; under setting [2], 226 nM.

For `COc1ccc(F)c(-c2ccc(COc3cccc([C@@H](CC(=O)O)C4CC4)c3)cc2CC(C)(C)Cn2cc(CCCCCCCCCCCCCCC(=O)NCCN(CCC(=O)NCCN)CCC(=O)NCCN)nn2)c1` [Example 49], the EC50 under setting [1] turned out to be 19.9 nM and the EC50 under setting [2] amounted to 19.9 nM. On to `COc1ccc(F)c(-c2ccc(COc3cccc([C@@H](CC(=O)O)C4CC4)c3)cc2OC(C)(C)COCc2cn(CCCCCCCCCCCCCC(=O)NCC[N+](C)(CCC(=O)NCCN)CCC(=O)NCCN)nn2)c1` [Example 26], for which the EC50 under setting [1] was 75.8 nM. On the same count and under the same terms, as for `COc1ccc(F)c(-c2ccc(COc3cccc([C@@H](CC(=O)O)C4CC4)c3)cc2OC(C)(C)Cn2cc(CCCCCCCCCCCCCCC(=O)NCC[N+](C)(CCC(=O)NCCN)CCC(=O)NCCN)nn2)c1` [Example 139], the figure is 8.54 nM; as for `COc1ccc(F)c(-c2ccc(COc3cccc([C@@H](CC(=O)O)C4CC4)c3)cc2C(C)(C)c2cn(CCCCCCCCCCCCCC(=O)NCCN(CCC(=O)NCCN)CCC(=O)NCCN)nn2)c1` [Example 8], above 1000 nM.

For the compound `COc1ccc(C(=O)N(CC(C)(C)CCn2cc(CCCCCCCCCCCCCCCC(=O)NCCCN(CC(=O)O)CC(=O)O)nn2)c2cccc(C)n2)c(N2CCC(COc3cc([C@@H](CC(=O)O)C4CC4)ccn3)CC2)c1` [Example 216], the EC50 amounted to 0.48 nM under setting [1] and 0.48 nM under setting [2].

`COc1ccc(F)c(-c2ccc(COc3cccc([C@@H](CC(=O)O)C4CC4)c3)cc2CC(C)(C)Cn2cc(COCCOCCOCCOCC(=O)NCCN(CCC(=O)NCCN)CCC(=O)NCCN)nn2)c1` [Example 166]: the half-maximal effective concentration (EC50) runs as follows: under setting [1], above 10000 nM; under setting [3], above 10000 nM. Compound `COc1ccc(C(=O)N(CC(C)(C)CCn2cc(CCCCCCCCCCCC(=O)NCCCN(CC(=O)O)CC(=O)O)nn2)c2cccc(C)n2)c(N2CCC(COc3cc([C@@H](CC(=O)O)C4CC4)ccn3)CC2)c1` [Example 126] showed an EC50 under setting [1] of 5.81 nM and an EC50 under setting [2] of 5.81 nM. For `COc1ccc(F)c(-c2ccc(COc3cccc([C@@H](CC(=O)O)C4CC4)c3)cc2CC(C)(C)Cn2cc(CCCCCCCCCCCCCCCCCC(=O)NCCCN(C)CC(=O)NCCN)nn2)c1` [Example 147], the midpoint of the response under setting [1], the EC50, lay at 0.62 nM. As to `COc1ccc(F)c(-c2ccc(COc3cccc([C@@H](CC(=O)O)C4CC4)c3)cc2CC(C)(C)Cn2cc(CCCCCCCCCCCCCCCCCC(=O)NCCN(CCC(=O)NCCN)CCC(=O)NCCN)nn2)c1` [Example 18], the EC50 came out at 2.25 nM under setting [1] and 2.25 nM under setting [2]. As for `C[C@H](C(=O)O)[C@H](c1ccc2c(c1)O[C@@H](C1CCN(Cc3cc(-n4cc(CCCCCCCCC(=O)NCCN(CCC(=O)NCCN)CCC(=O)NCCN)nn4)ccc3OC(F)(F)F)CC1)CC2)C1CC1` [Example 80], the EC50 is, setting by setting: under setting [1], above 5000 nM; under setting [2], above 5000 nM.

For the compound `COc1ccc(F)c(-c2ccc(COc3cccc([C@@H](CC(=O)O)C4CC4)c3)cc2C(C)(C)c2cn(CCCCCCCCCCCCCCCC(=O)NCC[N+](C)(CCC(=O)NCCN)CCC(=O)NCCN)nn2)c1` [Example 103], under setting [1], the response was half-maximal at 21.5 nM (EC50).

For `C[C@H](C(=O)O)[C@H](c1ccc2c(c1)O[C@@H](C1CCN(Cc3cc(-c4cn(CCCCCCCCCCCCCCCC(=O)NCCN(CCC(=O)NCCN)CCC(=O)NCCN)nn4)ccc3OC(F)(F)F)CC1)CC2)C1CC1` [Example 39], the EC50 runs as follows: under setting [1], 0.83 nM; under setting [2], 0.83 nM.

On to `C[C@H](C(=O)O)[C@H](c1ccc2c(c1)O[C@@H](C1CCN(Cc3cc(-c4cn(CCCCCCCCCC(=O)NCC[N+](C)(CCC(=O)NCCN)CCC(=O)NCCN)nn4)ccc3OC(F)(F)F)CC1)CC2)C1CC1` [Example 82], for which the EC50 was above 10000 nM under setting [1] and above 10000 nM under setting [2]. For the compound `COc1ccc(F)c(-c2ccc(COc3cccc([C@@H](CC(=O)O)C4CC4)c3)cc2CC(C)(C)Cn2cc(CCCCCCCCCCCCCC(=O)NCCCN(CC(=O)O)CC(=O)O)nn2)c1` [Example 106], under setting [1], the EC50 is 696 nM. Compound `COc1ccc(F)c(-c2ccc(COc3cccc([C@@H](CC(=O)O)C4CC4)c3)cc2C(C)(C)c2cn(CCCCCCCCCCCCCCCC(=O)NCCN(CCC(=O)NCCN)CCC(=O)NCCN)nn2)c1` [Example 40] returned an EC50 under setting [1] of 25.3 nM. Regarding `COc1ccc(C(=O)N(CC(C)(C)CCn2cc(COCCOCCOCCOCCOCC(=O)NCCN(CCC(=O)NCCN)CCC(=O)NCCN)nn2)c2cccc(C)n2)c(N2CCC(COc3cc([C@@H](CC(=O)O)C4CC4)ccn3)CC2)c1` [Example 161], the EC50 is 2200 nM under setting [1] and 2200 nM under setting [3]. For `C[C@H](C(=O)O)[C@H](c1ccc2c(c1)O[C@@H](C1CCN(Cc3cc(-c4cn(CCCCCCCCCCCC(=O)NCCN(CCC(=O)NCCN)CCC(=O)NCCN)nn4)ccc3OC(F)(F)F)CC1)CC2)C1CC1` [Example 36], the EC50 runs as follows: under setting [1], 403 nM; under setting [2], 403 nM. Turning to `C[C@H](C(=O)O)[C@H](c1ccc2c(c1)O[C@@H](C1CCN(Cc3cc(-n4cc(COCCOCCOCC(=O)NCCN(CCC(=O)NCCN)CCC(=O)NCCN)nn4)ccc3OC(F)(F)F)CC1)CC2)C1CC1` [Example 171], the EC50 is, setting by setting: under setting [1], above 10000 nM; under setting [3], above 10000 nM. On to `COc1ccc(C(=O)N(CC(C)(C)CCn2cc(CCCCCCCCCCCCCCC(=O)NCC[N+](C)(CCC(=O)NCCN)CCC(=O)NCCN)nn2)c2cccc(C)n2)c(N2CCC(COc3cc([C@@H](CC(=O)O)C4CC4)ccn3)CC2)c1` [Example 119], for which the EC50 is, setting by setting: under setting [1], 0.1 nM; under setting [2], 0.1 nM. As for `C[C@H](C(=O)O)[C@H](c1ccc2c(c1)O[C@@H](C1CCN(Cc3cc(-n4cc(CCCCCCCCCCC(=O)NCC[N+](C)(CCC(=O)NCCN)CCC(=O)NCCN)nn4)ccc3OC(F)(F)F)CC1)CC2)C1CC1` [Example 86], a half-maximal response under setting [1] (EC50) required 195 nM and the EC50 under setting [2] turned out to be 195 nM. On to `COc1ccc(F)c(-c2ccc(COc3cccc([C@@H](CC(=O)O)C4CC4)c3)cc2OC(C)(C)Cn2cc(CCCCCCCCCCCCC(=O)NCCN(CCC(=O)NCCN)CCC(=O)NCCN)nn2)c1` [Example 29], for which the EC50 under setting [1] is above 1000 nM. For the compound `C[C@H](C(=O)O)[C@H](c1ccc2c(c1)O[C@@H](C1CCN(Cc3cc(-n4cc(COCCOCCOCC(=O)NCC[N+](C)(CCC(=O)NCCN)CCC(=O)NCCN)nn4)ccc3OC(F)(F)F)CC1)CC2)C1CC1` [Example 174], the EC50 by setting is: under setting [1], above 10000 nM; under setting [3], above 10000 nM.

Take `COc1ccc(F)c(-c2ccc(COc3cccc([C@@H](CC(=O)O)C4CC4)c3)cc2CC(C)(C)Cc2cn(CCCCCCCCCCCCCCC(=O)NCCN(CCC(=O)NCCN)CCC(=O)NCCN)nn2)c1` [Example 52]: the EC50 came out at 26 nM under setting [1] and 26 nM under setting [2]. On to `COc1ccc(F)c(-c2ccc(COc3cccc([C@@H](CC(=O)O)C4CC4)c3)cc2CC(C)(C)Cn2cc(COCCOCCOCCOCCOCC(=O)NCC[N+](C)(CCC(=O)NCCN)CCC(=O)NCCN)nn2)c1` [Example 170], for which the EC50 under setting [1] is 200 nM and the EC50 under setting [3] was above 200 nM.
